Test results taken from patent US20230100235A1, “ANTICANCER AGENT COMPOSITION” (CARNA BIOSCIENCES, INC., priority 2020, published 2023).

Experiments:
[1] = test system: OCI-Ly10 cells; assay: Cell proliferation suppression test of single agents, OCI-Ly10 (Alamar Blue, 96 h); format: cell-based, Human; conditions: Homo sapiens, OCI-Ly10, single agent, read-out: Inhibitory Activity on cell proliferation IC50 OCI-Ly10
Procedure: Human lymphoma cell line OCI-Ly10 cells (obtained from University Health Network) were cultured in a 5% CO2 incubator using IMDM medium (Iscove's Modified Dulbecco's Medium, Thermo Fisher Scientific Inc.) containing 20% fetal bovine serum (GE Healthcare) and 1% penicillin streptomycin (NACALAI TESQUE, INC.).
(§1) The OCI-Ly10 or U2932 cells (20000 cells/well) were seeded into 96-well plates (cell plates), to which the test compound diluted with the medium was added at final concentrations of 0.009 nM to 30000 nM (a final DMSO concentration of 0.3%), and after 96 hours of culture, an Alamar Blue reagent (Thermo Fisher Scientific Inc.) was added. After 3 hours, the fluorescence of excitation wavelength 560 nm/fluorescence wavelength 590 nm was measured and IC50 values of inhibitory activity were determined by setting a compound-free and cell-free well as 100% and a compound-free and cell-containing well as 0%.

[2] = test system: U2932 cells; assay: Cell proliferation suppression test of single agents, U2932 (Alamar Blue, 96 h); format: cell-based, Human; conditions: Homo sapiens, U2932, single agent, read-out: Inhibitory Activity on cell proliferation IC50 U2932
Procedure: Human lymphoma cell line U2932 cells (obtained from DSMZ) were cultured in a 5% CO2 incubator using RPMI medium (Roswell Park Memorial Institute medium, Thermo Fisher Scientific Inc.) containing 10% fetal bovine serum (GE Healthcare) and 1% penicillin streptomycin (NACALAI TESQUE, INC.).
as §1

[3] = test system: BTK-C481S-mutant OCI-Ly10 cells; assay: Cell proliferation suppression test of single agents, BTK-C481S-mutant OCI-Ly10; format: cell-based, Human; conditions: Homo sapiens, OCI-Ly10; single agent; read-out: Inhibitory activity on cell proliferation OCI-Ly10 BTK-C481S IC50
Procedure: as §1
(§2) BTK-C481S-mutant OCI-Ly10 cells were produced by point mutation knock-in using the CRISPR-Cas9 system. Cas9 protein (Thermo Fisher Scientific Inc.), guide RNA prepared with GeneArt™ Precision gRNA Synthesis Kit (Thermo Fisher Scientific Inc.), and a single-stranded synthetic oligonucleotide to replace 481st cysteine residue of BTK with a serine residue were introduced into OCI-Ly10 cells by an electroporation method. The resulting modified OCI-Ly10 cells were cultured in the presence of ibrutinib, and the grown cells were used as BTK-C481S-mutant OCI-Ly10 cells. Transduction of the mutation was confirmed by genomic DNA and mRNA sequence analysis.
In the same manner as in Test Example 1, IC50 values for each inhibitor single agent were determined.

[4] = test system: OCI-Ly10 cells; assay: Dose-response study of BTK inhibitor in the presence of BCL-2 inhibitor, OCI-Ly10; format: cell-based; conditions: Homo sapiens, read-out: Inhibitory activity on cell proliferation OCI-Ly10 IC50
Procedure: as §1
(§3) Changes in IC50 values of the BTK inhibitor in the presence of the BCL-2 inhibitor at various concentrations were examined.

[5] = test system: U2932 cells; assay: Dose-response study of BTK inhibitor in the presence of BCL-2 inhibitor, U2932; format: cell-based; conditions: Homo sapiens, read-out: Inhibitory activity on cell proliferation U2932 IC50
Procedure: as §1, §3
From the result obtained for the BCL-2 inhibitor used as a single agent, BCL-2 inhibitor concentrations for three doses were selected for each cancer cell line.

[6] = test system: BTK-C481S-mutant OCI-Ly10 cells; assay: Dose-response study of BTK inhibitor in the presence of BCL-2 inhibitor, BTK-C481S-mutant OCI-Ly10; format: cell-based; conditions: Homo sapiens, read-out: Inhibitory activity on cell proliferation OCI-Ly10 BTK-C481S IC50
Procedure: as §2
BTK-C481S-mutant lymphoma cells were used to examine changes in IC50 values of the BTK inhibitor in the presence of various concentrations of BCL-2 inhibitor.
From the results obtained for the BCL-2 inhibitor used as a single agent, BCL-2 inhibitor concentrations for three doses were selected for BTK-C481-mutant OCI-Ly10 cells.

[7] = test system: BTK-C481S-mutant OCI-Ly10 cells; assay: Combined effect by BLISS score, BTK-C481S-mutant OCI-Ly10; format: cell-based, Human; conditions: combination with venetoclax, positive = synergistic
Procedure: After 96 hours of culture, an Alamar Blue reagent was added, and 3 hours later, fluorescence of excitation wavelength 560 nm/fluorescence wavelength 590 nm was measured. Cell proliferation inhibition rate and viability (100−inhibition rate %) were determined by setting a compound-free and cell-free well as 100% and a compound-free and cell-containing well as 0%.
as §2
The BLISS score was calculated in the same manner as in Example 1.

[8] = OCI-Ly10, in the presence of S-55746 10 nM
[9] = OCI-Ly10, in the presence of S-55746 30 nM
[10] = OCI-Ly10, in the presence of S-55746 100 nM
[11] = OCI-Ly10, in the presence of navitoclax 10 nM
[12] = OCI-Ly10, in the presence of navitoclax 30 nM
[13] = OCI-Ly10, in the presence of navitoclax 100 nM
[14] = OCI-Ly10, in the presence of obatoclax mesylate 50 nM
[15] = OCI-Ly10, in the presence of obatoclax mesylate 100 nM
[16] = OCI-Ly10, in the presence of obatoclax mesylate 200 nM
[17] = OCI-Ly10, in the presence of venetoclax 1 nM
[18] = OCI-Ly10, in the presence of venetoclax 3 nM
[19] = OCI-Ly10, in the presence of venetoclax 10 nM
[20] = OCI-Ly10, obatoclax mesylate 0 nM

- IC50 [1]: 2 nM
- IC50 [3]: 15 nM
- IC50 ([4]; OCI-Ly10, S-55746 0 nM): 2.1 nM
- IC50 [4, 8]: 1.3 nM
- IC50 [4, 9]: 1.1 nM
- IC50 [4, 10]: 0.6 nM
- IC50 [4, 11]: 1.4 nM
- IC50 [4, 12]: 1.1 nM
- IC50 [4, 13]: 0.8 nM
- IC50 [4, 14]: 0.9 nM
- IC50 [4, 15]: 0.9 nM
- IC50 [4, 16]: 0.9 nM
- IC50 [4, 17]: 1.5 nM
- IC50 [4, 18]: 1.5 nM
- IC50 [4, 19]: 1.3 nM
- IC50 [4, 20]: 1.2 nM
- IC50 ([4]; OCI-Ly10, venetoclax 0 nM): 2.1 nM
- IC50 ([6]; OCI-Ly10, S-55746 0 nM): 11 nM
- IC50 [6, 8]: 7.9 nM
- IC50 [6, 9]: 5.2 nM
- IC50 [6, 10]: 3.1 nM
- IC50 [6, 11]: 12 nM
- IC50 [6, 12]: 8.2 nM
- IC50 [6, 13]: 4.1 nM
- IC50 [6, 14]: 5.4 nM
- IC50 [6, 15]: 4.4 nM
- IC50 [6, 16]: 4 nM
- IC50 [6, 17]: 10 nM
- IC50 [6, 18]: 6.9 nM
- IC50 [6, 19]: 4.8 nM
- IC50 ([6]; OCI-Ly10, navitoclax 0 nM): 15 nM
- IC50 [6, 20]: 16 nM
- IC50 ([6]; OCI-Ly10, venetoclax 0 nM): 15 nM
SMILES: Nc1nc(-c2cccc(-n3ccc4cc(C5CC5)cc(F)c4c3=O)c2CO)c2cc(C3=CCN(C4COC4)CC3)[nH]c2n1 [Compound (I-A), 2-(3-{2-amino-6-[1-(oxetan-3-yl)-1,2,3,6-tetrahydropyridin-4-yl]-7H-pyrrolo[2,3-d]pyrimidin-4-yl}-2-(hydroxymethyl)phenyl)-6-cyclopropyl-8-fluoroisoquinolin-1(2H)-one]
- IC50 [2]: 12500 nM
- IC50 ([5]; U2932, S-55746 0 nM): > 30000 nM
- IC50 ([5]; U2932, in the presence of S-55746 100 nM): 3480 nM
- IC50 ([5]; U2932, in the presence of S-55746 300 nM): 480 nM
- IC50 ([5]; U2932, in the presence of S-55746 1000 nM): 22 nM
- IC50 ([5]; U2932, in the presence of navitoclax 30 nM): 12000 nM
- IC50 ([5]; U2932, in the presence of navitoclax 100 nM): 1950 nM
- IC50 ([5]; U2932, in the presence of navitoclax 300 nM): 23 nM
- IC50 ([5]; U2932, in the presence of obatoclax mesylate 50 nM): 19600 nM
- IC50 ([5]; U2932, in the presence of obatoclax mesylate 100 nM): 13500 nM
- IC50 ([5]; U2932, in the presence of venetoclax 3 nM): 4800 nM
- IC50 ([5]; U2932, in the presence of venetoclax 10 nM): 1100 nM
- IC50 ([5]; U2932, in the presence of venetoclax 100 nM): 14 nM
- IC50 ([5]; U2932, navitoclax 0 nM): 28500 nM
- IC50 ([5]; U2932, obatoclax mesylate 0 nM): 25900 nM
- IC50 ([5]; U2932, venetoclax 0 nM): 13600 nM
- BLISS score [7]: positive values
